Patent US20020034725A1, “SENSITIZATION OF CELLS TO RADIATION AND AND CHEMOTHERAPY” (priority 1996, published 2002)

Test system: 5R, 3.7, MR4 and REF cells
Experiment: Radiation survival determination (clonogenic survival)
Assay type: cell-based, rat
Details: for plating efficiency: unaffected by FTI-277
Protocol: FIG. 14A comprises a series of graphs depicting clonogenic survival of 5R, 3.7, MR4, and REF cells following treatment with FTI-277 and irradiation of the cells. Immediately prior to irradiation, FTI-277 was added at concentrations of 2.5 μM (3.7 cells) or 5 μM (5R, MR4 and REF cells). The inhibitor was diluted out of the culture medium 24 hours later resulting in a final concentration of inhibitor of 1 μM (3.7 cells) or 2 μM (5R, MR4 and REF). The plating efficiencies of MR4 and […] were unaffected by treatment with FTI-277, being 100% and 32-38%, respectively. FTI-277 reduced the plating efficiency of 3.7 and REF cells by 50% of untreated control values which were 75% and 5%, respectively. […] The data points shown represent the mean of the results obtained from at least three separate dishes of cells. The open symbols indicate the results obtained in untreated cells and the closed symbols are those results obtained in cells treated with FTI-277. In the panel labeled 3.7, the open triangles are the results obtained in untreated MR4 cells.
Cells obtained from log growth cultures were plated in 60-mm dishes and allowed to attach for 4 hours before addition of FTI-277 to the medium. The plating medium was then removed and fresh medium containing FTI-277 in DMSO or DMSO alone (for control dishes) was added immediately before irradiation. Cells were irradiated with a Mark I cesium irradiator (J. S. Shepherd, San Fernando, Calif.) at a dose rate of 1.7 Gray per minute. Colonies of cells were stained and counted 10-14 days after irradiation (McKenna et al., 1990, supra). The surviving fraction of cells at a given dose is defined as: [formula]
Each point on the survival curves represents the mean surviving fraction from at least three dishes of cells.

## COC(=O)[C@H](CCSC)NC(=O)c1ccc(NC[C@@H](N)CS)cc1-c1ccccc1 [FTI-277]
3.7 (2.5 μM) and 5R (5 μM) cells, 24 hours after irradiation
  radioresistance (survival curves): reduced to a level of survival which was similar to that seen in MR4 cells
3.7 and REF cells
  reduction of plating efficiency, of untreated control values: 50%
5R cells
  plating efficiency: 32-38%
MR4 cells
  plating efficiency: 100%
MR4 or REF cells, 5 μM
  radiation survival: no effect on radiation survival
